Assay results from the supplement of paper PMC10307832.

Tests used:
Test in all cases: relative viability (nuclei count vs DMSO), 5 days (fraction); higher = more cells survive
[1] = test system: LCLC-103H
In short: (§1)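 Lung cancer cell lines in 1536-well plates were dosed by pin tool the day after seeding, either with one drug alone or with a fixed anchor-drug dose plus five library-drug doses (not always all listed) in √10 steps. After 5 days, cells were fixed and their nuclei stained in one step (final 0.05% Triton X-100, 1% formaldehyde, 1 ug/ml Hoechst), then counted on 4× images. Relative viability is the nuclei count in treated wells divided by that in vehicle wells. Values are medians of duplicate plates.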

[2] = test system: NCI-H358
In short: as §1

[3] = test system: EMC-BAC-2
In short: as §1

[4] = test system: NCI-H596
In short: as §1

[5] = test system: HCC-44
In short: as §1

[6] = test system: SW 1573
In short: as §1

[7] = test system: HCC-827
In short: as §1

[8] = test system: NCI-H2087
In short: as §1

[9] = test system: EKVX
In short: as §1

[10] = test system: NCI-H2347
In short: as §1

[11] = test system: BEN
In short: as §1

[12] = test system: EPLC-272H
In short: as §1

[13] = test system: NCI-H1651
In short: as §1

[14] = test system: A-427
In short: as §1

[15] = test system: LXF-289
In short: as §1

[16] = test system: LK-2
In short: as §1

[17] = test system: NCI-H1915
In short: as §1

[18] = test system: NCI-H460
In short: as §1

[19] = test system: 201T
In short: as §1

[20] = test system: NCI-H1793
In short: as §1

[21] = test system: NCI-H2126
In short: as §1

[22] = test system: COR-L23
In short: as §1

## Cc1cnc(-c2cnc(NCCNc3ccc(C#N)cn3)nc2-c2ccc(Cl)cc2Cl)[nH]1 + Cc1nc(NC(=O)N2CCC[C@H]2C(N)=O)sc1-c1ccnc(C(C)(C)C(F)(F)F)c1 [Alpelisib] (partner 2 µM)
[1]; first compound 0.08 µM
  relative viability: 1.16
[1]; first compound 0.253 µM
  relative viability: 0.958
[1]; first compound 0.8 µM
  relative viability: 1.07
[1]; first compound 2.53 µM
  relative viability: 0.951
[2]; first compound 0.08 µM
  relative viability: 0.955
[2]; first compound 0.253 µM
  relative viability: 0.714
[2]; first compound 0.8 µM
  relative viability: 0.843
[2]; first compound 2.53 µM
  relative viability: 0.729
[3]; first compound 0.08 µM
  relative viability: 0.8
[3]; first compound 0.253 µM
  relative viability: 0.72
[3]; first compound 0.8 µM
  relative viability: 0.743
[3]; first compound 2.53 µM
  relative viability: 0.749
[4]; first compound 0.08 µM
  relative viability: 0.532
[4]; first compound 0.253 µM
  relative viability: 0.375
[4]; first compound 0.8 µM
  relative viability: 0.517
[4]; first compound 2.53 µM
  relative viability: 0.469
[5]; first compound 0.08 µM
  relative viability: 0.853
[5]; first compound 0.253 µM
  relative viability: 0.768
[5]; first compound 0.8 µM
  relative viability: 0.823
[5]; first compound 2.53 µM
  relative viability: 0.926
[6]; first compound 0.08 µM
  relative viability: 0.822
[6]; first compound 0.253 µM
  relative viability: 0.765
[6]; first compound 0.8 µM
  relative viability: 0.748
[6]; first compound 2.53 µM
  relative viability: 0.515
[7]; first compound 0.08 µM
  relative viability: 1.08
[7]; first compound 0.8 µM
  relative viability: 0.99
[7]; first compound 2.53 µM
  relative viability: 0.929
[8]; first compound 0.08 µM
  relative viability: 1.21
[8]; first compound 0.253 µM
  relative viability: 0.892
[8]; first compound 0.8 µM
  relative viability: 1.02
[8]; first compound 2.53 µM
  relative viability: 1.06
[9]; first compound 0.08 µM
  relative viability: 1.04
[9]; first compound 0.253 µM
  relative viability: 0.739
[9]; first compound 0.8 µM
  relative viability: 0.839
[9]; first compound 2.53 µM
  relative viability: 0.766
[10]; first compound 0.08 µM
  relative viability: 1.08
[10]; first compound 0.253 µM
  relative viability: 0.812
[10]; first compound 0.8 µM
  relative viability: 1.15
[10]; first compound 2.53 µM
  relative viability: 1.01
[11]; first compound 0.08 µM
  relative viability: 1.22
[11]; first compound 0.253 µM
  relative viability: 0.973
[11]; first compound 0.8 µM
  relative viability: 0.964
[11]; first compound 2.53 µM
  relative viability: 1.04
[12]; first compound 0.08 µM
  relative viability: 0.911
[12]; first compound 0.253 µM
  relative viability: 1.01
[12]; first compound 0.8 µM
  relative viability: 0.728
[12]; first compound 2.53 µM
  relative viability: 0.899
[13]; first compound 0.08 µM
  relative viability: 1.08
[13]; first compound 0.253 µM
  relative viability: 0.903
[13]; first compound 0.8 µM
  relative viability: 0.965
[13]; first compound 2.53 µM
  relative viability: 0.991
[14]; first compound 0.08 µM
  relative viability: 1.1
[14]; first compound 0.253 µM
  relative viability: 1.05
[14]; first compound 0.8 µM
  relative viability: 1.07
[14]; first compound 2.53 µM
  relative viability: 1.06
[15]; first compound 0.08 µM
  relative viability: 1.11
[15]; first compound 0.253 µM
  relative viability: 1
[15]; first compound 0.8 µM
  relative viability: 1.05
[15]; first compound 2.53 µM
  relative viability: 1.08
[16]; first compound 0.08 µM
  relative viability: 1.21
[16]; first compound 0.253 µM
  relative viability: 1.05
[16]; first compound 0.8 µM
  relative viability: 1.13
[16]; first compound 2.53 µM
  relative viability: 1.3
[17]; first compound 0.08 µM
  relative viability: 1.08
[17]; first compound 0.8 µM
  relative viability: 1.09
[17]; first compound 2.53 µM
  relative viability: 1.01
[18]; first compound 0.08 µM
  relative viability: 0.552
[18]; first compound 0.253 µM
  relative viability: 0.475
[18]; first compound 0.8 µM
  relative viability: 0.61
[18]; first compound 2.53 µM
  relative viability: 0.68
[19]; first compound 0.08 µM
  relative viability: 1.07
[19]; first compound 0.253 µM
  relative viability: 0.959
[19]; first compound 0.8 µM
  relative viability: 1.01
[19]; first compound 2.53 µM
  relative viability: 1.02
[20]; first compound 0.08 µM
  relative viability: 0.838
[20]; first compound 0.253 µM
  relative viability: 0.618
[20]; first compound 0.8 µM
  relative viability: 0.973
[20]; first compound 2.53 µM
  relative viability: 1.08
[21]; first compound 0.08 µM
  relative viability: 0.725
[21]; first compound 0.253 µM
  relative viability: 0.756
[21]; first compound 0.8 µM
  relative viability: 0.669
[21]; first compound 2.53 µM
  relative viability: 0.766
[22]; first compound 0.08 µM
  relative viability: 0.918
[22]; first compound 0.253 µM
  relative viability: 0.649
[22]; first compound 0.8 µM
  relative viability: 0.826
[22]; first compound 2.53 µM
  relative viability: 0.774

## O=C(O)CCCCC(CCSCc1ccccc1)SCc1ccccc1 (stereo not given) [CPI-613] + Cc1nc(NC(=O)N2CCC[C@H]2C(N)=O)sc1-c1ccnc(C(C)(C)C(F)(F)F)c1 [Alpelisib] (partner 2 µM)
[1]; first compound 5 µM
  relative viability: 0.845
[1]; first compound 15.81 µM
  relative viability: 0.974
[1]; first compound 50 µM
  relative viability: 0.883
[1]; first compound 158.11 µM
  relative viability: 0.873
[1]; first compound 500 µM
  relative viability: 0.964
[2]; first compound 5 µM
  relative viability: 0.851
[2]; first compound 15.81 µM
  relative viability: 0.742
[2]; first compound 50 µM
  relative viability: 0.912
[2]; first compound 158.11 µM
  relative viability: 0.261
[2]; first compound 500 µM
  relative viability: 0.0364
[3]; first compound 5 µM
  relative viability: 0.713
[3]; first compound 15.81 µM
  relative viability: 0.702
[3]; first compound 50 µM
  relative viability: 0.72
[3]; first compound 158.11 µM
  relative viability: 0.68
[3]; first compound 500 µM
  relative viability: 0.119
[4]; first compound 5 µM
  relative viability: 0.539
[4]; first compound 15.81 µM
  relative viability: 0.496
[4]; first compound 50 µM
  relative viability: 0.539
[4]; first compound 158.11 µM
  relative viability: 0.473
[4]; first compound 500 µM
  relative viability: 0.0181
[5]; first compound 5 µM
  relative viability: 0.841
[5]; first compound 15.81 µM
  relative viability: 0.758
[5]; first compound 50 µM
  relative viability: 0.92
[5]; first compound 158.11 µM
  relative viability: 0.374
[5]; first compound 500 µM
  relative viability: 0.041
[6]; first compound 5 µM
  relative viability: 0.729
[6]; first compound 15.81 µM
  relative viability: 0.764
[6]; first compound 50 µM
  relative viability: 0.806
[6]; first compound 158.11 µM
  relative viability: 0.778
[6]; first compound 500 µM
  relative viability: 0.669
[7]; first compound 5 µM
  relative viability: 0.972
[7]; first compound 15.81 µM
  relative viability: 1
[7]; first compound 50 µM
  relative viability: 0.974
[7]; first compound 158.11 µM
  relative viability: 0.47
[7]; first compound 500 µM
  relative viability: 0.218
[8]; first compound 5 µM
  relative viability: 1.14
[8]; first compound 15.81 µM
  relative viability: 0.95
[8]; first compound 50 µM
  relative viability: 0.95
[8]; first compound 158.11 µM
  relative viability: 0.0725
[8]; first compound 500 µM
  relative viability: 0.0158
[9]; first compound 5 µM
  relative viability: 0.802
[9]; first compound 15.81 µM
  relative viability: 0.814
[9]; first compound 50 µM
  relative viability: 0.903
[9]; first compound 158.11 µM
  relative viability: 0.857
[9]; first compound 500 µM
  relative viability: 0.965
[10]; first compound 5 µM
  relative viability: 1.02
[10]; first compound 15.81 µM
  relative viability: 0.963
[10]; first compound 50 µM
  relative viability: 0.959
[10]; first compound 158.11 µM
  relative viability: 1.05
[10]; first compound 500 µM
  relative viability: 0.973
[11]; first compound 5 µM
  relative viability: 0.929
[11]; first compound 15.81 µM
  relative viability: 0.949
[11]; first compound 50 µM
  relative viability: 0.969
[11]; first compound 158.11 µM
  relative viability: 0.831
[11]; first compound 500 µM
  relative viability: 0.858
[12]; first compound 5 µM
  relative viability: 0.95
[12]; first compound 15.81 µM
  relative viability: 0.813
[12]; first compound 50 µM
  relative viability: 0.94
[12]; first compound 158.11 µM
  relative viability: 0.923
[12]; first compound 500 µM
  relative viability: 1.04
[13]; first compound 5 µM
  relative viability: 0.969
[13]; first compound 15.81 µM
  relative viability: 0.895
[13]; first compound 50 µM
  relative viability: 0.967
[13]; first compound 158.11 µM
  relative viability: 0.41
[13]; first compound 500 µM
  relative viability: 0.116
[14]; first compound 5 µM
  relative viability: 1.02
[14]; first compound 15.81 µM
  relative viability: 1.06
[14]; first compound 50 µM
  relative viability: 1.01
[14]; first compound 158.11 µM
  relative viability: 0.985
[14]; first compound 500 µM
  relative viability: 0.857
[15]; first compound 5 µM
  relative viability: 1.02
[15]; first compound 15.81 µM
  relative viability: 0.961
[15]; first compound 50 µM
  relative viability: 0.988
[15]; first compound 158.11 µM
  relative viability: 0.318
[15]; first compound 500 µM
  relative viability: 0.0306
[16]; first compound 5 µM
  relative viability: 1.01
[16]; first compound 15.81 µM
  relative viability: 0.98
[16]; first compound 50 µM
  relative viability: 1.06
[16]; first compound 158.11 µM
  relative viability: 1.16
[16]; first compound 500 µM
  relative viability: 0.82
[17]; first compound 5 µM
  relative viability: 1.12
[17]; first compound 15.81 µM
  relative viability: 1.04
[17]; first compound 50 µM
  relative viability: 1.01
[17]; first compound 158.11 µM
  relative viability: 0.925
[17]; first compound 500 µM
  relative viability: 0.926
[18]; first compound 5 µM
  relative viability: 0.426
[18]; first compound 15.81 µM
  relative viability: 0.496
[18]; first compound 50 µM
  relative viability: 0.433
[18]; first compound 158.11 µM
  relative viability: 0.0466
[18]; first compound 500 µM
  relative viability: 0.006
[19]; first compound 5 µM
  relative viability: 1
[19]; first compound 15.81 µM
  relative viability: 0.976
[19]; first compound 50 µM
  relative viability: 0.996
[19]; first compound 158.11 µM
  relative viability: 1.01
[19]; first compound 500 µM
  relative viability: 1.01
[20]; first compound 5 µM
  relative viability: 0.671
[20]; first compound 50 µM
  relative viability: 0.66
[20]; first compound 158.11 µM
  relative viability: 0.273
[20]; first compound 500 µM
  relative viability: 0.109
[21]; first compound 5 µM
  relative viability: 0.755
[21]; first compound 15.81 µM
  relative viability: 0.815
[21]; first compound 50 µM
  relative viability: 0.78
[21]; first compound 158.11 µM
  relative viability: 0.749
[21]; first compound 500 µM
  relative viability: 0.747
[22]; first compound 5 µM
  relative viability: 0.745
[22]; first compound 15.81 µM
  relative viability: 0.696
[22]; first compound 50 µM
  relative viability: 0.852
[22]; first compound 158.11 µM
  relative viability: 0.281
[22]; first compound 500 µM
  relative viability: 0.0191
